Measurements: publication PMC10066365, “Nemacol is a small molecule inhibitor of C. elegans vesicular acetylcholine transporter with anthelmintic potential” (Nature Communications, 2023)
Where “and” joins values, the source holds several entries; their conditions need not be identical. Identical values can stand only once.

Legend:
Pristionchus pacificus = Pristionchus pacificus motor disruption dose-response on solid media, 1 h; conditions: for mean % any phene (coiled, jerky-Unc or paralyzed): Pristionchus pacificus young adults, mean of three biological replicates
C. elegans = C. elegans motor phenotype scoring on solid media (Punc/jerky-unc, coiled, paralyzed), wild-type young adults; assay type: in vivo, Caenorhabditis elegans; conditions: for any phene, mean % fraction of young adults exhibiting any phenotype (coiled, jerky-Unc or paralyzed) / atypical locomotion (number of animals) / coiled (number of animals) / no phene (number of animals) / paralyzed (number of animals): one hour; for any phene, mean % fraction of young adults exhibiting any phenotype (coiled, jerky-Unc or paralyzed): mean of three biological replicates; for atypical locomotion (number of animals) / coiled (number of animals) / no phene (number of animals) / paralyzed (number of animals): young adults, 20 animals per trial, single replicate counts; for AVERAGES Fraction Coiled / AVERAGES Fraction Paralyzed / AVERAGES Fraction Punc: mean of 3 replicates; for Fraction Coiled / Fraction Paralyzed / Fraction Punc: single replicate

## CCC1CCC(N2CCN(c3ccc([N+](=O)[O-])cc3)CC2)CC1 (centres unmarked) [Nemacol-2]
Pristionchus pacificus; conc 3.75, observed at one hour
  mean % any phene (coiled, jerky-Unc or paralyzed): 4.167%
Pristionchus pacificus; conc 15, observed at one hour
  mean % any phene (coiled, jerky-Unc or paralyzed): 89.1667%
Pristionchus pacificus; conc 60, observed at one hour
  mean % any phene (coiled, jerky-Unc or paralyzed): 100%
Pristionchus pacificus; Pristionchus pacificus, 1 h, read-out: P. pacificus motor disruption EC50
  EC50: 8.6 ± 1.3 µM
C. elegans; 3.75uM
  any phene, mean % fraction of young adults exhibiting any phenotype (coiled, jerky-Unc or paralyzed): 29.1667%
  atypical locomotion (number of animals): 5 and 8 and 2 and 3 and 9
  coiled (number of animals): 0
  no phene (number of animals): 15 and 12 and 18 and 17 and 11
  paralyzed (number of animals): 0
C. elegans; 15 μM, 30 min, adults
  NP (number of animals): 5 and 7 and 10
  P (number of animals): 0
  Punc (number of animals): 10 and 9 and 8
  AVERAGES Fraction Coiled: 0.0926
  AVERAGES Fraction Paralyzed: 0.0
  AVERAGES Fraction Punc: 0.5
  Fraction Coiled: 0.167 and 0.111 and 0.0
  Fraction Paralyzed: 0.0
  Fraction Punc: 0.556 and 0.5 and 0.444
C. elegans; 15 μM, 60 min, adults
  C2 (number of animals): 2 and 1
  P (number of animals): 0
  Punc (number of animals): 14 and 15
  AVERAGES Fraction Coiled: 0.13
  AVERAGES Fraction Paralyzed: 0.0
  AVERAGES Fraction Punc: 0.8
  Fraction Coiled: 0.111 and 0.167
  Fraction Paralyzed: 0.0
  Fraction Punc: 0.8
C. elegans; 15 μM, 90 min, adults
  C2 (number of animals): 1 and 2
  P (number of animals): 0
  Punc (number of animals): 15 and 11
  AVERAGES Fraction Coiled: 0.113
  AVERAGES Fraction Paralyzed: 0.0
  AVERAGES Fraction Punc: 0.8
  Fraction Coiled: 0.111 and 0.118
  Fraction Paralyzed: 0.0
  Fraction Punc: 0.8 and 0.647
C. elegans; 15 μM, 120 min, adults
  Punc (number of animals): 11 and 7
  AVERAGES Fraction Coiled: 0.0741
  AVERAGES Fraction Paralyzed: 0.0185
  AVERAGES Fraction Punc: 0.537
  Fraction Coiled: 0.0556 and 0.111
  Fraction Paralyzed: 0.0 and 0.0556
  Fraction Punc: 0.6 and 0.4
C. elegans; 15 μM, 240 min, adults
  C1 (number of animals): 0
  C2 (number of animals): 0
  NP (number of animals): 8 and 12 and 15
  P (number of animals): 0
  AVERAGES Fraction Coiled: 0.037
  AVERAGES Fraction Paralyzed: 0.0741
  AVERAGES Fraction Punc: 0.6
  Fraction Coiled: 0.0 and 0.111
  Fraction Paralyzed: 0.0 and 0.111
  Fraction Punc: 0.556 and 0.6
C. elegans; 15 μM, 360 min, adults
  C1 (number of animals): 0
  NP (number of animals): 14 and 9 and 17
  AVERAGES Fraction Coiled: 0.037
  AVERAGES Fraction Paralyzed: 0.0185
  AVERAGES Fraction Punc: 0.2
  Fraction Coiled: 0.0 and 0.111
  Fraction Paralyzed: 0.0 and 0.0556
  Fraction Punc: 0.222 and 0.333 and 0.0556
C. elegans; 15 μM, next day, adults
  Next Day Animals alive (moving fine): alive, recovered
C. elegans; 15uM
  any phene, mean % fraction of young adults exhibiting any phenotype (coiled, jerky-Unc or paralyzed): 95.873%
  atypical locomotion (number of animals): 10 and 11 and 18 and 13
  coiled (number of animals): 5 and 2 and 4
  no phene (number of animals): 0 and 2 and 1
  paralyzed (number of animals): 5 and 2 and 0 and 3
C. elegans; 30 μM, 30 min, adults
  C1 (number of animals): 3 and 2
  Punc (number of animals): 10 and 11 and 16
  AVERAGES Fraction Coiled: 0.246
  AVERAGES Fraction Paralyzed: 0.0185
  AVERAGES Fraction Punc: 0.7
  Fraction Coiled: 0.333 and 0.3 and 0.111
  Fraction Paralyzed: 0.0556 and 0.0
  Fraction Punc: 0.556 and 0.647 and 0.9
C. elegans; 30 μM, 60 min, adults
  NP (number of animals): 0
  Punc (number of animals): 7 and 8 and 13
  AVERAGES Fraction Coiled: 0.3
  AVERAGES Fraction Paralyzed: 0.167
  AVERAGES Fraction Punc: 0.5
  Fraction Coiled: 0.4 and 0.333 and 0.222
  Fraction Paralyzed: 0.222 and 0.0556
  Fraction Punc: 0.4 and 0.444 and 0.7
C. elegans; 30 μM, 90 min, adults
  NP (number of animals): 0
  P (number of animals): 5 and 3
  Punc (number of animals): 8 and 10 and 12
  AVERAGES Fraction Coiled: 0.241
  AVERAGES Fraction Paralyzed: 0.2
  AVERAGES Fraction Punc: 0.556
  Fraction Coiled: 0.278 and 0.167
  Fraction Paralyzed: 0.278 and 0.167
  Fraction Punc: 0.444 and 0.556 and 0.667
C. elegans; 30 μM, 120 min, adults
  C1 (number of animals): 3 and 2
  C2 (number of animals): 1 and 2
  NP (number of animals): 0
  AVERAGES Fraction Coiled: 0.2
  AVERAGES Fraction Paralyzed: 0.278
  AVERAGES Fraction Punc: 0.5
  Fraction Coiled: 0.222 and 0.167
  Fraction Paralyzed: 0.556 and 0.222 and 0.0556
  Fraction Punc: 0.222 and 0.6 and 0.7
C. elegans; 30 μM, 240 min, adults
  NP (number of animals): 2 and 3 and 4
  P (number of animals): 4 and 2
  Punc (number of animals): 11 and 12
  AVERAGES Fraction Coiled: 0.0556
  AVERAGES Fraction Paralyzed: 0.148
  AVERAGES Fraction Punc: 0.6
  Fraction Coiled: 0.0556 and 0.111 and 0.0
  Fraction Paralyzed: 0.222 and 0.111
  Fraction Punc: 0.6 and 0.667
C. elegans; 30 μM, 360 min, adults
  C2 (number of animals): 0
  NP (number of animals): 6 and 9 and 10
  Punc (number of animals): 5 and 7 and 8
  AVERAGES Fraction Coiled: 0.0196
  AVERAGES Fraction Paralyzed: 0.135
  AVERAGES Fraction Punc: 0.376
  Fraction Coiled: 0.0588 and 0.0
  Fraction Paralyzed: 0.3 and 0.111 and 0.0
  Fraction Punc: 0.3 and 0.4 and 0.444
C. elegans; 60 μM, 30 min, adults
  C1 (number of animals): 3 and 4
  C2 (number of animals): 2
  NP (number of animals): 0
  Punc (number of animals): 7 and 10 and 12
  AVERAGES Fraction Coiled: 0.3
  AVERAGES Fraction Paralyzed: 0.154
  AVERAGES Fraction Punc: 0.545
  Fraction Coiled: 0.3 and 0.333 and 0.278
  Fraction Paralyzed: 0.3 and 0.111 and 0.0556
  Fraction Punc: 0.4 and 0.556 and 0.667
C. elegans; 60 μM, 60 min, adults
  C2 (number of animals): 2 and 4 and 3
  NP (number of animals): 0
  P (number of animals): 9 and 7 and 8
  Punc (number of animals): 4 and 6
  AVERAGES Fraction Coiled: 0.259
  AVERAGES Fraction Paralyzed: 0.444
  AVERAGES Fraction Punc: 0.3
  Fraction Coiled: 0.278 and 0.222
  Fraction Paralyzed: 0.5 and 0.4 and 0.444
  Fraction Punc: 0.222 and 0.333
C. elegans; 60 μM, 90 min, adults
  C1 (number of animals): 3 and 4
  C2 (number of animals): 3 and 4
  NP (number of animals): 0
  AVERAGES Fraction Coiled: 0.37
  AVERAGES Fraction Paralyzed: 0.426
  AVERAGES Fraction Punc: 0.2
  Fraction Coiled: 0.333 and 0.4
  Fraction Paralyzed: 0.6 and 0.222 and 0.444
  Fraction Punc: 0.0556 and 0.4 and 0.167
C. elegans; 60 μM, 120 min, adults
  C1 (number of animals): 2
  NP (number of animals): 0
  AVERAGES Fraction Coiled: 0.3
  AVERAGES Fraction Paralyzed: 0.4
  AVERAGES Fraction Punc: 0.3
  Fraction Coiled: 0.222 and 0.444
  Fraction Paralyzed: 0.6 and 0.333 and 0.278
  Fraction Punc: 0.167 and 0.444 and 0.278
C. elegans; 60 μM, 240 min, adults
  NP (number of animals): 0
  AVERAGES Fraction Coiled: 0.167
  AVERAGES Fraction Paralyzed: 0.352
  AVERAGES Fraction Punc: 0.5
  Fraction Coiled: 0.167
  Fraction Paralyzed: 0.6 and 0.222
  Fraction Punc: 0.222 and 0.6
C. elegans; 60 μM, 360 min, adults
  Punc (number of animals): 6 and 11 and 10
  Remark on animals at 360 min: look dead
  AVERAGES Fraction Coiled: 0.0556
  AVERAGES Fraction Paralyzed: 0.4
  AVERAGES Fraction Punc: 0.5
  Fraction Coiled: 0.0556 and 0.111 and 0.0
  Fraction Paralyzed: 0.6 and 0.278
  Fraction Punc: 0.333 and 0.6 and 0.556
C. elegans; 60uM
  atypical locomotion (number of animals): 3 and 6 and 1
  coiled (number of animals): 9 and 6 and 3 and 1
  no phene (number of animals): 0
  paralyzed (number of animals): 8 and 14 and 18
C. elegans; Caenorhabditis elegans, 1 h, Fig. 1, dose-response at 60 min, wild-type young adults, +/- 95% CI, read-out: EC50
  EC50: 6.6 ± 0.4 µM
